{
  "source": "PubChem BioAssay AID179",
  "about": "(DTP/NCI, 2004)",
  "system": "CEM cells HIV-1 protection, formazan growth assay",
  "assay": "NCI AIDS Antiviral Assay",
  "conditions": "for IC50: measured here: growth of uninfected CEM cells",
  "experimental": "The ability of compounds to protect human CEM cells from HIV-1 infection is measured as a screen for new compounds capable of inhibiting the HIV virus. Five concentrations of drug were tested on uninfected and infected cells and cell growth was measured using a soluble formazan assay. […] Compounds that provided at least 50% protection were retested. Compounds that provided at least 50% protection on retest were listed as moderately active. Compounds that reproducibly provided 100% protection were listed as confirmed active. […] Note that the inability to provide protection could be due to toxicity.",
  "note": "Calls of active or inactive are those of the source.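 How the source made its calls: active means compounds giving half or more protection of infected cells from virus-caused growth loss, again on retest; inactive means the rest.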",
  "data": [
    {"molecule": "C(#C[PH+](c1ccccc1)c1ccccc1)c1ccccc1.C(#C[PH+](c1ccccc1)c1ccccc1)c1ccccc1.C(#C[PH+](c1ccccc1)c1ccccc1)c1ccccc1.[C-]#[O+].[C-]#[O+].[C-]#[O+].[Cr]", "values": [
      {"measurement": "EC50", "result": "> 0.55", "unit": "µM"},
      {"measurement": "IC50", "result": "> 0.55", "unit": "µM"}
    ]},
    {"molecule": "CO[C@@H]1CCC=C(C=O)O1", "values": [
      {"measurement": "outcome", "result": "inactive"}
    ]},
    {"molecule": "CC(=O)ONC(C(=O)C(C)(C)C)C(=O)C(C)(C)C", "values": [
      {"measurement": "EC50", "result": "> 200", "unit": "µM"},
      {"measurement": "IC50", "result": "> 200", "unit": "µM"}
    ]},
    {"molecule": "O=C1C(NS(=O)(=O)c2ccccc2)=C(n2cnc3ccccc32)C(=O)c2ccccc21", "values": [
      {"measurement": "EC50", "result": "> 200", "unit": "µM"},
      {"measurement": "IC50", "result": 145, "unit": "µM"}
    ]},
    {"molecule": "CCOP(=O)(CC(=O)C1CC1)OCC", "values": [
      {"measurement": "outcome", "result": "inactive"}
    ]},
    {"molecule": "N#CC1(C2SCCS2=O)C2=C(C(=O)c3ccccc3C2=O)N2CCCC21", "note": "(stereo not given)", "values": [
      {"measurement": "outcome", "result": "inactive"}
    ]},
    {"molecule": "O=C(NCCCCCCNC(=O)n1cc(F)c(=O)[nH]c1=O)NC1C(O)OC(CO)C(O)C1O", "note": "(stereo not given)", "values": [
      {"measurement": "outcome", "result": "inactive"}
    ]},
    {"molecule": "CC1=C(\\C=C/C(C)=C/C=C/C(C)=C/C=C/C=C(C)\\C=C\\C=C(C)/C=C/C2=C(C)CCCC2(C)C)C(C)(C)CCC1", "values": [
      {"measurement": "EC50", "result": "> 200", "unit": "µM"},
      {"measurement": "IC50", "result": 97.7, "unit": "µM"}
    ]},
    {"molecule": "O=Cc1ccc2c(c1)C(O)NC(=O)O2", "note": "(stereo not given)", "values": [
      {"measurement": "EC50", "result": 28.2, "unit": "µM"},
      {"measurement": "IC50", "result": 72.4, "unit": "µM"}
    ]},
    {"molecule": "C(=N\\Nc1ccc2ccccc2n1)/c1ccccn1.CC(=O)[O-].CC(=O)[O-].[Zn+2]", "values": [
      {"measurement": "EC50", "result": "> 200", "unit": "µM"},
      {"measurement": "IC50", "result": 1.05, "unit": "µM"}
    ]},
    {"molecule": "CCCCc1ccc(-n2sc3ncc([N+](=O)[O-])cc3c2=O)cc1", "values": [
      {"measurement": "EC50", "result": "> 17", "unit": "µM"},
      {"measurement": "IC50", "result": 10, "unit": "µM"}
    ]},
    {"molecule": "CCOCN1COCN=C1NC#N", "values": [
      {"measurement": "EC50", "result": "> 490", "unit": "µM"},
      {"measurement": "IC50", "result": "> 490", "unit": "µM"}
    ]},
    {"molecule": "CCCCCC=C(c1cc(Cl)c(OC)c(C(=O)NO)c1)c1cc(Cl)c(OC)c(C(=O)NO)c1", "values": [
      {"measurement": "EC50", "result": "> 200", "unit": "µM"},
      {"measurement": "IC50", "result": 1.95, "unit": "µM"}
    ]},
    {"molecule": "COC(=O)/C(C#N)=C(\\Nc1ccccc1)N1CCCC1", "values": [
      {"measurement": "EC50", "result": "> 200", "unit": "µM"},
      {"measurement": "IC50", "result": 138, "unit": "µM"}
    ]},
    {"molecule": "CO[C@@H]1O[C@H](C(=O)c2ccccc2)[C@H]2OC(C)(C)O[C@@H]12", "values": [
      {"measurement": "EC50", "result": "> 200", "unit": "µM"},
      {"measurement": "IC50", "result": 45.7, "unit": "µM"}
    ]},
    {"molecule": "Nc1nccc2c1ncn2C1OC(CO)C(O)C1O", "note": "(stereo not given)", "values": [
      {"measurement": "EC50", "result": "> 933", "unit": "µM"},
      {"measurement": "IC50", "result": 30.2, "unit": "µM"}
    ]},
    {"molecule": "CCN(CC)CCn1ccc(=O)c2cc3c(=O)ccn(CCN(CC)CC)c3c(C)c21", "values": [
      {"measurement": "EC50", "result": "> 17", "unit": "µM"},
      {"measurement": "IC50", "result": 0.676, "unit": "µM"}
    ]},
    {"molecule": "CCOC(=O)C(NC(=O)c1ccccc1)(Nc1ccc(S(=O)(=O)Nc2ccc(OC)nn2)cc1)C(F)(F)F", "note": "(stereo not given)", "values": [
      {"measurement": "EC50", "result": "> 200", "unit": "µM"},
      {"measurement": "IC50", "result": "> 200", "unit": "µM"}
    ]},
    {"molecule": "O=C(O)/C(=C/c1ccccc1[N+](=O)[O-])c1cccs1", "values": [
      {"measurement": "EC50", "result": "> 912", "unit": "µM"},
      {"measurement": "IC50", "result": 457, "unit": "µM"}
    ]},
    {"molecule": "CCOC(=O)c1cc(-c2cc(OC)c(OC)c([N+](=O)[O-])c2)c([N+](=O)[O-])n1C", "values": [
      {"measurement": "EC50", "result": "> 200", "unit": "µM"},
      {"measurement": "IC50", "result": 10.2, "unit": "µM"}
    ]},
    {"molecule": "Nc1nccc(NCC2(CO)CC(OCc3ccccc3)C2)n1", "note": "(stereo not given)", "values": [
      {"measurement": "EC50", "result": "> 200", "unit": "µM"},
      {"measurement": "IC50", "result": "> 200", "unit": "µM"}
    ]},
    {"molecule": "CC(=O)c1sc(=N)n(-c2c(C)cccc2C)c1C", "values": [
      {"measurement": "EC50", "result": "> 200", "unit": "µM"},
      {"measurement": "IC50", "result": "> 200", "unit": "µM"}
    ]},
    {"molecule": "COc1cc(C[C@H]2C(=O)OC[C@@H]2C(=O)c2ccc(OC(C)C)c(O)c2)cc(OC)c1O", "values": [
      {"measurement": "EC50", "result": "> 2", "unit": "µM"},
      {"measurement": "IC50", "result": 0.49, "unit": "µM"}
    ]},
    {"molecule": "N#CCC(=O)NCCc1c[nH]c2ccccc12", "values": [
      {"measurement": "EC50", "result": "> 200", "unit": "µM"},
      {"measurement": "IC50", "result": "> 200", "unit": "µM"}
    ]},
    {"molecule": "Oc1ccc(CCc2nc3ccccc3[nH]2)cc1", "values": [
      {"measurement": "EC50", "result": "> 200", "unit": "µM"},
      {"measurement": "IC50", "result": 42.7, "unit": "µM"}
    ]},
    {"molecule": "CCOC(=O)C1=NN(c2ccccc2)C2=CC(C)=NN(C)C(=S)N21", "values": [
      {"measurement": "EC50", "result": "> 200", "unit": "µM"},
      {"measurement": "IC50", "result": "> 200", "unit": "µM"}
    ]},
    {"molecule": "COC1(OC)CCN(Cc2ccccc2)C1=O", "values": [
      {"measurement": "EC50", "result": "> 20", "unit": "µM"},
      {"measurement": "IC50", "result": 2.69, "unit": "µM"}
    ]},
    {"molecule": "O=c1cc2[nH]cnc2c(O)[nH]1", "values": [
      {"measurement": "EC50", "result": "> 89.1", "unit": "µM"},
      {"measurement": "IC50", "result": "> 89.1", "unit": "µM"}
    ]},
    {"molecule": "CC(=O)Nc1ccc(/C=c2\\sc3nnc(CCC(=O)Nc4ccccc4Cl)n3c2=O)cc1", "values": [
      {"measurement": "EC50", "result": "> 28.8", "unit": "µM"},
      {"measurement": "IC50", "result": "> 28.8", "unit": "µM"}
    ]},
    {"molecule": "C=C1CC(COc2ccc3ccc(=O)oc3c2)(c2ccccc2)OC1=O", "note": "(stereo not given)", "values": [
      {"measurement": "EC50", "result": "> 2", "unit": "µM"},
      {"measurement": "IC50", "result": 0.724, "unit": "µM"}
    ]},
    {"molecule": "Nc1nonc1-c1noc(-c2nonc2N)[n+]1[O-]", "values": [
      {"measurement": "EC50", "result": "> 200", "unit": "µM"},
      {"measurement": "IC50", "result": 12.3, "unit": "µM"}
    ]},
    {"molecule": "O=c1[nH]c(Nc2ccc(F)c(Cl)c2)nc2nc[nH]c12", "values": [
      {"measurement": "EC50", "result": "> 200", "unit": "µM"},
      {"measurement": "IC50", "result": "> 200", "unit": "µM"}
    ]},
    {"molecule": "CCCCN(CCCC)CC1CC(C(C)(C)C)CCC1O", "note": "(stereo not given)", "values": [
      {"measurement": "EC50", "result": "> 200", "unit": "µM"},
      {"measurement": "IC50", "result": 19.5, "unit": "µM"}
    ]},
    {"molecule": "CN1c2ccccc2C2=C(c3ccccc3)CC[C@@H](C(=O)N3C4CC5CC[C@@]4(CS3(=O)=O)C5(C)C)[C@@H]21", "note": "(stereo not given in full)", "values": [
      {"measurement": "EC50", "result": "> 200", "unit": "µM"},
      {"measurement": "IC50", "result": 129, "unit": "µM"}
    ]},
    {"molecule": "CCOC(=O)c1cn(CC)c2cc3c(cc2c1=O)SCS3", "values": [
      {"measurement": "outcome", "result": "inactive"}
    ]}
  ]
}
